In this assay the target is T1, PAF receptor (Oryctolagus cuniculus, UniProt G1TEI7).
T1 construct: platelet membranes where prepared by centrifugation and washing; tissue Pel-Freez (Rogers, AR) (whole rabbit blood); host or cells: rabbit platelet membranes
Put plainly: PAF receptor binding assay ([3H]C18-PAF, rabbit platelet membranes). The note with it: read-out: PAF Receptor Binding Activity K1. On the procedure:
The ability of representative compounds of the present invention to inhibit PAF activity was determined in an in vitro test using the following method.
Citrated whole rabbit blood was obtained from Pel-Freez (Rogers, AR). Rabbit platelets where prepared by centrifugation and washing. The platelets where lysed by freeze-thawing and sonication; platelet membranes where prepared by centrifugation and washing. Final membrane preparations where stored frozen in 10 mM Tris/5 mM MgCl2 /2 mM EDTA (TME buffer, pH 7.0) with 0.25 M sucrose added for membrane stabilization.
The final volume of the assay was 100 μl. The assay was conducted in Millititre-GV™ (Millipore Corp.) filtration plates; incubation time was for 60 minutes at room temperature (22°-23° C.). "Specific binding" was operationally defined as the arithmetic difference between "total binding" of 0.6 nM [^3 H]C18 -PAF (in the absence of added PAF) and "nonspecific binding" (in the presence of 1 μM PAF). After the prescribed incubation, platelet membranes where filtered under vacuum and washed with 1 millilitre of "binding buffer". The filters was dried and removed. The bound radioactivity was quantitated with a Berthold TLC-Linear Analyzer model LB2842.
Experiments where repeated at least once.

Where [1] appears, read: inhibition of specific binding of 0.6 nM [3H]C18-PAF to rabbit platelet membranes, 60 min, room temperature, Ki calculated from IC50 by Cheng and Prusoff.

pKi: −log10 of the molar value. Structures can show the parent of a compound that is named as a salt. Where two headings read alike, the source gives them in different places.

T1 sequence (G1TEI7 1-342): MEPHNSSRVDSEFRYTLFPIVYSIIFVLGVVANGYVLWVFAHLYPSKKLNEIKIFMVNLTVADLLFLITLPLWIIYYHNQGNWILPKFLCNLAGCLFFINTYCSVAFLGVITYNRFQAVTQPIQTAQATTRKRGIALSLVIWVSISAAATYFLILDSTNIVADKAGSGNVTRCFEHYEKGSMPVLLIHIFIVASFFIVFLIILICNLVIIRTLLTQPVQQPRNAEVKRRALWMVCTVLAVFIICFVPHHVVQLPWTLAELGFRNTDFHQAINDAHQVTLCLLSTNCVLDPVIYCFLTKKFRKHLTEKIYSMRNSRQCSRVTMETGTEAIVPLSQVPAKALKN

Consider `O=C(c1ccn2c1CSC2c1cccnc1)c1cn(C(=O)NCCO)c2cc(-c3ccc(F)cc3)ccc12` (stereo not shown) [Example 62, 3-(Pyridin-3-yl)-7-[1-N-(2-hydroxyethyl)carbamoyl-6-(4-fluorophenyl)indol-3-ylcarbonyl]-1H,3H-pyrrolo[1,2-c]thiazole], for which the pKi was 8.13.
Same read-out and setting: the same measure for `N#CCn1cc(C(=O)c2ccn3c2CSC3c2cccnc2)c2ccc(-c3ccc(F)cc3)cc21` (stereo not shown) [Example 94, 3-(Pyridin-3-yl)-7-[1-cyanomethyl-6-(4-fluorophenyl)indol-3-ylcarbonyl]-1H,3H-pyrrolo[1,2-c]thiazole]: 7.40.
For the compound `COC(=O)CCn1cc(C(=O)c2ccn3c2CSC3c2cccnc2)c2ccc(-c3ccc(F)cc3)cc21` (stereo not shown) [Example 46, 3-(Pyridin-3-yl)-7-[1-(2-carbomethoxyethyl)-6-(4-fluorophenyl)indol-3-ylcarbonyl]-1H,3H-pyrrolo[1,2-c]thiazole], the pKi was 8.00.
Same read-out and setting: with `O=C(c1ccn2c1CSC2c1cccnc1)c1c[nH]c2cc(OCc3ccccc3)ccc12` (stereo not shown) [Example 4, 3-(Pyridin-3-yl)-7-(6-phenylmethoxyindol-3-yl)carbonyl-1H,3H-pyrrolo[1,2-c]thiazole] the figure was 7.19; with `CN(C)C(=O)n1cc(C(=O)c2ccn3c2CSC3c2cccnc2)c2ccccc21` (stereo not shown) [Example 2, 3-(Pyridin-3-yl)-7-(1-N,N-dimethylcarbamoylindol-3-yl)carbonyl-1H,3H-pyrrolo[1,2-c]thiazole], 5.70.
On the same count and under the same terms, with `NC(=O)n1cc(C(=O)c2ccn3c2CSC3c2cccnc2)c2ccc(-c3ccc(F)cc3)cc21` (stereo not shown) [Example 76, 3-(Pyridin-3-yl)-7-[1-carbamoyl-6-(4-fluorophenyl)indol-3-ylcarbonyl]-1H,3H-pyrrolo[1,2-c]thiazole] the figure was 8.21; with `O=C(c1ccn2c1CSC2c1cccnc1)c1c[nH]c2cc(-c3ccc(F)cc3)ccc12` (stereo not shown) [Example 28, 3-(Pyridin-3-yl)-7-[6-(4-fluorophenyl)indol-3-ylcarbonyl]-1H,3H-pyrrolo[1,2-c]thiazole], 7.12; with `CC1(C)SC(c2cccnc2)n2ccc(C(=O)c3c[nH]c4cc(-c5ccc(F)cc5)ccc34)c21` (stereo not shown) [Example 36, 1,1-Dimethyl-3-(pyridin-3-yl)-7-[6-(4-fluorophenyl)indol-3-ylcarbonyl]-1H,3H-pyrrolo[1,2-c]thiazole], 5.96.
Regarding `CN(C)C(=O)n1cc(C(=NN)c2ccn3c2CSC3c2cccnc2)c2ccc(-c3ccc(F)cc3)cc21` (stereo not shown) [Example 104], the pKi is 8.66.
With `O=C(c1ccn2c1C[S+]([O-])C2c1cccnc1)c1c[nH]c2ccccc12` (stereo not shown) [Example 14, 2-Oxide-3-(pyridin-3-yl)-7-(indol-3-ylcarbonyl)-1H,3H-pyrrolo[1,2-c]thiazole], the pKi is 5.62.
On the same count and under the same terms, the same measure for `CS(=O)(=O)n1cc(C(=O)c2ccn3c2CSC3c2cccnc2)c2ccc(-c3ccc(F)cc3)cc21` (stereo not shown) [Example 51, 3-(Pyridin-3-yl)-7-[1-methanesulfonyl-6-(4-fluorophenyl)indol-3-ylcarbonyl]-1H,3-pyrrolo[1,2-c]thiazole]: 6.92.
The same measure, in the same setting: with `COc1ccc(-c2ccc3c(C(=O)c4ccn5c4CSC5c4cccnc4)c[nH]c3c2)cc1` (stereo not shown) [Example 38, 3-(Pyridin-3-yl)-7-[6-(4-methoxyphenyl)indol-3-yl]carbonyl-1H,3H-pyrrolo[1,2-c]thiazole] the figure was 6.00.
On the same count and under the same terms, the same measure for `CN(C)CCN(C)C(=O)n1cc(C(=O)c2ccn3c2CSC3c2cccnc2)c2ccc(-c3ccc(F)cc3)cc21` (stereo not shown) [Example 84, 3-(Pyridin-3-yl)-7-[1-(N-methyl-N-(dimethylaminoethyl))carbamoyl-6-(4-fluorophenyl)indol-3-ylcarbonyl]-1H,3H-pyrrolo[1,2-c]thiazole]: 8.16.
On to `O=C(c1ccn2c1CSC2c1cccnc1)c1c[nH]c2cc(Cl)ccc12` (stereo not shown) [Example 47, 3-(Pyridin-3-yl)-7-(6-chloroindol-3-ylcarbonyl)-1H,3H-pyrrolo[1,2-c]thiazole], for which the pKi was 6.23.
In the case of `NCCn1cc(C(=O)c2ccn3c2CSC3c2cccnc2)c2ccc(-c3ccc(F)cc3)cc21` (stereo not shown) [Example 70, 3-(Pyridin-3-yl)-7-[1-(2-aminoethyl)-6-(4-fluorophenyl)indol-3-ylcarbonyl]-1H,3H-pyrrolo[1,2-c]thiazole Hydrochloride], the pKi under setting [1] was 8.59.
In the case of `COc1ccc(-c2ccc3c(C(=O)c4ccn5c4C(C)(C)SC5c4cccnc4)cn(C(=O)N(C)C)c3c2)cc1` (stereo not shown) [Example 26, 1,1-Dimethyl-3-Dimethyl-3-(pyridin-3-yl)-7-[1-N,N-dimethylcarbamoyl-6-(4-methoxyphenyl)indol-3-ylcarbonyl]-1H,3H-pyrrolo[1,2-c]thiazole], the pKi is 7.26.
On to `CN(C)C(=O)n1cc(C(=O)c2ccn3c2CSC3c2ccc[n+]([O-])c2)c2ccccc21` (stereo not shown) [Example 44, 3-(1-Oxide-pyridin-3-yl)-7-(1-N,N-dimethylcarbamoylindol-3-ylcarbonyl)-1H,3H-pyrrolo[1,2-c]thiazole], for which the pKi is 7.40.
Same read-out and setting: with `CN(C)C(=O)Cn1cc(C(=O)c2ccn3c2CSC3c2ccc[n+]([O-])c2)c2ccc(-c3ccc(F)cc3)cc21` (stereo not shown) [Example 75, 3-(1-Oxide-pyridin-3-yl)-7-[1-(2-N,N-dimethylcarbamoylmethyl)-6-(4-fluorophenyl)indol-3-ylcarbonyl]-1H,3H-pyrrolo[1,2-c]thiazole] the figure was 8.12.
In the case of `CN(C)C(=O)n1cc(C(=O)c2ccn3c2CSC3c2cccnc2)c2ccc(Cl)cc21` (stereo not shown) [Example 65, 3-(Pyridin-3-yl)-7-(1-N,N-dimethylcarbamoyl-6-chloroindol-3-ylcarbonyl)-1H,3H-pyrrolo[1,2-c]thiazole], the pKi was 7.05.
The same measure, in the same setting: with `CNC(=O)n1cc(C(=O)c2ccn3c2CSC3c2cccnc2)c2ccc(-c3ccc(OC)cc3)cc21` (stereo not shown) [Example 43, 3-(Pyridin-3-yl)-7-[1-N-methylcarbamoyl-6-(4-methoxyphenyl)indol-3-ylcarbonyl]-1H,3H-pyrrolo[1,2-c]thiazole] the figure was 7.59; with `O=C(c1ccn2c1CSC2c1cccnc1)c1c[nH]c2cc(-c3cccnc3)ccc12` (stereo not shown) [Example 41], 5.70.
“3(1-Carbamoylamino-pyridin-3-yl)-7-[1-N,N-dimethylcarbamoyl-6-(4-fluorophenyl)indol-3-ylcarbonyl]-1H,3H-pyrrolo[1,2-c]thiazole [Example 77]”: the pKi under setting [1] is 7.00.
For `CNC(=O)n1cc(C(=O)c2ccn3c2C(C)(C)SC3c2cccnc2)c2ccc(-c3ccc(OC)cc3)cc21` (stereo not shown) [Example 32, 1,1-Dimethyl-3-(pyridin-3-yl)-7-[1-N-methylcarbamoyl-6-(4-methoxyphenyl)indol-3-ylcarbonyl]-1H,3H-pyrrolo[1,2-c]thiazole], the pKi is 6.82.
Consider `CNC(=O)n1cc(C(=O)c2ccn3c2CSC3c2ccc[n+]([O-])c2)c2ccc(-c3ccccc3)cc21` (stereo not shown) [Example 35, 3-(1-Oxide-pyridin-3-yl)-7-(1-N-methylcarbamoyl-6-phenylindol-3-ylcarbonyl)-1H,3H-pyrrolo[1,2-c]thiazole], for which the pKi is 7.36.
`CN(C)C(=O)n1cc(C(=O)c2ccn3c2CSC3c2cccnc2)c2ccc(-c3ccccc3)cc21` (stereo not shown) [Example 12, 3-(Pyridin-3-yl)-7-(1-N,N-dimethylcarbamoyl-6-phenylindol-3-yl)carbonyl-1H,3H-pyrrolo[1,2-c]thiazole]: the pKi was 7.64.
As for `O=C(c1ccn2c1CSC2c1cccnc1)c1cn(Cc2nnn[nH]2)c2cc(-c3ccc(F)cc3)ccc12` (stereo not shown) [Example 97, 3-(Pyridin-3-yl)-7-[1-(1H-tetrazol-5-ylmethyl)-6-(4-fluorophenyl)indol-3-ylcarbonyl]-1H,3H-pyrrolo[1,2-c]thiazole], the pKi was 7.72.
The same measure, in the same setting: with `NS(=O)(=O)CCn1cc(C(=O)c2ccn3c2CSC3c2ccc[n+]([O-])c2)c2ccc(-c3ccc(F)cc3)cc21` (stereo not shown) [Example 79, 3-(3-Oxide-pyridin-3-yl)-7-[1-(2-aminosulfonylethyl)-6-(4-fluorophenyl)indol-3-ylcarbonyl]-1H,3H-pyrrolo[1,2-c]thiazole] the figure was 7.74.
On to `CC(=O)OC[n+]1cccc(C2SCc3c(C(=O)c4cn(C(=O)N(C)C)c5cc(-c6ccc(F)cc6)ccc45)ccn32)c1` (stereo not shown) [Example 92, 3-(1-Acetoxymethylpyridin-3-yl)-7-[1-N,N-dimethylcarbamoyl-6-(4-fluorophenyl)indol-3-ylcarbonyl]-1H,3H-pyrrolo[1,2-c]thiazole], for which the pKi is 7.72.
Still for that read-out and setting: with `NCCn1cc(C(=O)c2ccn3c2CSC3c2ccc[n+]([O-])c2)c2ccc(-c3ccc(F)cc3)cc21` (stereo not shown) [Example 90, 3-(1-Oxide-pyridin-3-yl)-7-[1-(2-aminoethyl)-6-(4-fluorophenyl)indol-3-ylcarbonyl]-1H,3H-pyrrolo[1,2-c]thiazole] the figure was 6.32; with `O=C(c1ccn2c1CSC2c1cccnc1)c1cn(C(=O)NCCc2c[nH]cn2)c2cc(-c3ccc(F)cc3)ccc12` (stereo not shown) [Example 105, 3-(Pyridin-3-yl)-7-[1-N-(2-(4-imidazolyl)ethyl)carbamoyl-6-(4-fluorophenyl)indol-3-ylcarbonyl]-1H,3H-pyrrolo[1,2-c]thiazole], 8.37.
Still for that read-out and setting: with `CN(C)C(=O)n1cc(C(=O)c2ccn3c2CSC3c2cccnc2)c2cc(OCc3ccccc3)ccc21` (stereo not shown) [Example 6, 3-(Pyridin-3-yl)-7-(N,N-dimethylcarbamoyl-5-phenylmethoxyindol-3-yl)carbonyl-1H,3H-pyrrolo[1,2-c]thiazole] the figure was 6.92.

Source of the values: patent US5459152A, “Platelet activating factor antagonists” (Abbott Laboratories, priority 1993, dated 1995).
